Measurements from US20220169632A1, “METHODS AND MATERIALS FOR INCREASING OR MAINTAINING NICOTINAMIDE MONONUCLEOTIDE ADENYLYL TRANSFERASE-2 (NMNAT2) POLYPEPTIDE LEVELS” (University of Pittsburgh - Of the Commonwealth System of …, priority 2019, published 2022).

Tested on: NMNAT2
Experiment: NMNAT2-Hibit nano-luciferase activity in stably transfected U87MG cells, various concentrations, 24 hours
Format: cell-based
Conditions: U87MG cells stably transfected with NMNAT2-Hibit luc plasmid
Description: Selected compounds were tested in vitro. U87MG cells were stably transfected with NMNAT2-Hibit luc plasmid. Cells were treated with a test compound at various concentrations for 24 hours. Cells were then collected and assayed for nano-luciferase activity.

Compound | E: compound efficacy for NMNAT2 activation (concentration giving >25% increase in NMNAT2 luciferase activity)
COc1cccc(CNC(=O)CCCc2cn(Cc3ccccc3F)c3ccccc23)c1 [BC20128] | ++ (“++” >25% increase in NMNAT2 luciferase activity at >1 μM ≤25 μM.)
O=C(CCCc1cn(Cc2ccccc2F)c2ccccc12)N1CCN(C(=O)c2ccco2)CC1 [BC20129] | ++ (“++” >25% increase in NMNAT2 luciferase activity at >1 μM ≤25 μM.)
CC(Cc1ccco1)NC(=O)CCCc1cn(Cc2ccccc2F)c2ccccc12 (stereo not drawn) [BC20130] | ++ (“++” >25% increase in NMNAT2 luciferase activity at >1 μM ≤25 μM.)
O=C(CCCc1cn(Cc2ccccc2F)c2ccccc12)NCCc1ccccc1 [BC20131] | ++ (“++” >25% increase in NMNAT2 luciferase activity at >1 μM ≤25 μM.)
O=C(CCCc1cn(Cc2ccccc2F)c2ccccc12)NCc1cccnc1 [BC20132] | ++ (“++” >25% increase in NMNAT2 luciferase activity at >1 μM ≤25 μM.)
O=C(CCCc1cn(Cc2ccccc2F)c2ccccc12)NCc1ccncc1 [BC20133] | ++ (“++” >25% increase in NMNAT2 luciferase activity at >1 μM ≤25 μM.)
Cc1cccc(NC(=O)CCCc2cn(Cc3ccccc3F)c3ccccc23)c1C [BC20134] | ++ (“++” >25% increase in NMNAT2 luciferase activity at >1 μM ≤25 μM.)
O=C(CCCc1cn(Cc2cccc(F)c2)c2ccccc12)NCc1ccco1 [BC20135] | ++ (“++” >25% increase in NMNAT2 luciferase activity at >1 μM ≤25 μM.)
Cc1ccc(CNC(=O)CCCc2cn(Cc3cccc(F)c3)c3ccccc23)o1 [BC20136] | ++ (“++” >25% increase in NMNAT2 luciferase activity at >1 μM ≤25 μM.)
O=C(CCCc1cn(Cc2cccc(F)c2)c2ccccc12)NCC1CCCO1 (stereo not drawn) [BC20137] | ++ (“++” >25% increase in NMNAT2 luciferase activity at >1 μM ≤25 μM.)
O=C(CCCc1cn(Cc2cccc(F)c2)c2ccccc12)NCc1ccccc1F [BC20138] | ++ (“++” >25% increase in NMNAT2 luciferase activity at >1 μM ≤25 μM.)
O=C(CCCc1cn(Cc2cccc(F)c2)c2ccccc12)NCc1cccc(F)c1 [BC20139] | ++ (“++” >25% increase in NMNAT2 luciferase activity at >1 μM ≤25 μM.)
Cc1ccccc1CNC(=O)CCCc1cn(Cc2cccc(F)c2)c2ccccc12 [BC20140] | + (“+” >25% increase in NMNAT2 luciferase activity at >25 μM.)
Cc1cccc(CNC(=O)CCCc2cn(Cc3cccc(F)c3)c3ccccc23)c1 [BC20141] | + (“+” >25% increase in NMNAT2 luciferase activity at >25 μM.)
COc1ccccc1CNC(=O)CCCc1cn(Cc2cccc(F)c2)c2ccccc12 [BC20142] | ++ (“++” >25% increase in NMNAT2 luciferase activity at >1 μM ≤25 μM.)
COc1cccc(CNC(=O)CCCc2cn(Cc3cccc(F)c3)c3ccccc23)c1 [BC20143] | ++ (“++” >25% increase in NMNAT2 luciferase activity at >1 μM ≤25 μM.)
O=C(CCCc1cn(Cc2cccc(F)c2)c2ccccc12)N1CCN(C(=O)c2ccco2)CC1 [BC20144] | ++ (“++” >25% increase in NMNAT2 luciferase activity at >1 μM ≤25 μM.)
CC(Cc1ccco1)NC(=O)CCCc1cn(Cc2cccc(F)c2)c2ccccc12 (stereo not drawn) [BC20145] | ++ (“++” >25% increase in NMNAT2 luciferase activity at >1 μM ≤25 μM.)
O=C(CCCc1cn(Cc2cccc(F)c2)c2ccccc12)NCCc1ccccc1 [BC20146] | ++ (“++” >25% increase in NMNAT2 luciferase activity at >1 μM ≤25 μM.)
O=C(CCCc1cn(Cc2cccc(F)c2)c2ccccc12)NCc1cccnc1 [BC20147] | ++ (“++” >25% increase in NMNAT2 luciferase activity at >1 μM ≤25 μM.)
O=C(CCCc1cn(Cc2cccc(F)c2)c2ccccc12)NCc1ccncc1 [BC20148] | ++ (“++” >25% increase in NMNAT2 luciferase activity at >1 μM ≤25 μM.)
Cc1cccc(NC(=O)CCCc2cn(Cc3cccc(F)c3)c3ccccc23)c1C [BC20149] | ++ (“++” >25% increase in NMNAT2 luciferase activity at >1 μM ≤25 μM.)
Cc1ccc(CNC(=O)CCCc2cn(Cc3ccccc3C)c3ccccc23)o1 [BC20150] | ++ (“++” >25% increase in NMNAT2 luciferase activity at >1 μM ≤25 μM.)

Compound | E: compound efficacy for NMNAT2 activation (concentration giving >25% increase in NMNAT2 luciferase activity)
Cc1ccccc1Cn1cc(CCCC(=O)NCc2ccccc2F)c2ccccc21 [BC20151] | ++ (“++” >25% increase in NMNAT2 luciferase activity at >1 μM ≤25 μM.)
Cc1ccccc1Cn1cc(CCCC(=O)NCc2cccc(F)c2)c2ccccc21 [BC20152] | ++ (“++” >25% increase in NMNAT2 luciferase activity at >1 μM ≤25 μM.)
Cc1ccccc1CNC(=O)CCCc1cn(Cc2ccccc2C)c2ccccc12 [BC20153] | ++ (“++” >25% increase in NMNAT2 luciferase activity at >1 μM ≤25 μM.)
Cc1cccc(CNC(=O)CCCc2cn(Cc3ccccc3C)c3ccccc23)c1 [BC20154] | + (“+” >25% increase in NMNAT2 luciferase activity at >25 μM.)
COc1ccccc1CNC(=O)CCCc1cn(Cc2ccccc2C)c2ccccc12 [BC20155] | ++ (“++” >25% increase in NMNAT2 luciferase activity at >1 μM ≤25 μM.)
COc1cccc(CNC(=O)CCCc2cn(Cc3ccccc3C)c3ccccc23)c1 [BC20156] | ++ (“++” >25% increase in NMNAT2 luciferase activity at >1 μM ≤25 μM.)
Cc1ccccc1Cn1cc(CCCC(=O)N(CCCN2CCOCC2)Cc2ccco2)c2ccccc21 [BC20157] | +++ (“+++” >25% increase in NMNAT2 luciferase activity at ≤1 μM.)
Cc1ccccc1Cn1cc(CCCC(=O)N2CCN(C(=O)c3ccco3)CC2)c2ccccc21 [BC20158] | ++ (“++” >25% increase in NMNAT2 luciferase activity at >1 μM ≤25 μM.)
Cc1ccccc1Cn1cc(CCCC(=O)NC(C)Cc2ccco2)c2ccccc21 (stereo not drawn) [BC20159] | ++ (“++” >25% increase in NMNAT2 luciferase activity at >1 μM ≤25 μM.)
Cc1ccccc1Cn1cc(CCCC(=O)NCc2ccncc2)c2ccccc21 [BC20160] | ++ (“++” >25% increase in NMNAT2 luciferase activity at >1 μM ≤25 μM.)
Cc1ccccc1Cn1cc(CCCC(=O)Nc2cccc(C)c2C)c2ccccc21 [BC20161] | ++ (“++” >25% increase in NMNAT2 luciferase activity at >1 μM ≤25 μM.)
CCCCN(CC)Cc1ccc(CNC(=O)CCCc2cn(Cc3ccccc3C)c3ccccc23)o1 [BC20162] | +++ (“+++” >25% increase in NMNAT2 luciferase activity at ≤1 μM.)
Cc1cccc(Cn2cc(CCCC(=O)NCc3ccco3)c3ccccc32)c1 [BC20163] | +++ (“+++” >25% increase in NMNAT2 luciferase activity at ≤1 μM.)
Cc1cccc(Cn2cc(CCCC(=O)NCc3ccc(C)o3)c3ccccc32)c1 [BC20164] | +++ (“+++” >25% increase in NMNAT2 luciferase activity at ≤1 μM.)
Cc1cccc(Cn2cc(CCCC(=O)NCc3ccccc3F)c3ccccc32)c1 [BC20165] | +++ (“+++” >25% increase in NMNAT2 luciferase activity at ≤1 μM.)
Cc1cccc(Cn2cc(CCCC(=O)NCc3cccc(F)c3)c3ccccc32)c1 [BC20166] | ++ (“++” >25% increase in NMNAT2 luciferase activity at >1 μM ≤25 μM.)
Cc1cccc(Cn2cc(CCCC(=O)NCc3ccccc3C)c3ccccc32)c1 [BC20167] | +++ (“+++” >25% increase in NMNAT2 luciferase activity at ≤1 μM.)
Cc1cccc(CNC(=O)CCCc2cn(Cc3cccc(C)c3)c3ccccc23)c1 [BC20168] | ++ (“++” >25% increase in NMNAT2 luciferase activity at >1 μM ≤25 μM.)
COc1cccc(CNC(=O)CCCc2cn(Cc3cccc(C)c3)c3ccccc23)c1 [BC20169] | ++ (“++” >25% increase in NMNAT2 luciferase activity at >1 μM ≤25 μM.)
Cc1cccc(Cn2cc(CCCC(=O)N3CCN(C(=O)c4ccco4)CC3)c3ccccc32)c1 [BC20170] | ++ (“++” >25% increase in NMNAT2 luciferase activity at >1 μM ≤25 μM.)
Cc1cccc(Cn2cc(CCCC(=O)NC(C)Cc3ccco3)c3ccccc32)c1 (stereo not drawn) [BC20171] | +++ (“+++” >25% increase in NMNAT2 luciferase activity at ≤1 μM.)
Cc1cccc(Cn2cc(CCCC(=O)NCCc3ccccc3)c3ccccc32)c1 [BC20172] | ++ (“++” >25% increase in NMNAT2 luciferase activity at >1 μM ≤25 μM.)
